Test results published in ChEMBL document CHEMBL4376890, “Unique Sulfur-Aromatic Interactions Contribute to the Binding of Potent Imidazothiazole Indoleamine 2,3-Dioxygenase Inhibitors” (J Med Chem, 2020).

target: T1, Indoleamine 2,3-dioxygenase 1 (Homo sapiens, UniProt P14902); test: Inhibition of recombinant full-length N-terminal His-tagged human IDO1 (1 to 403 residues) expressed in Escherichia coli BL21(DE3) cells
T1 sequence (P14902 whole entry, the tested form may be a part): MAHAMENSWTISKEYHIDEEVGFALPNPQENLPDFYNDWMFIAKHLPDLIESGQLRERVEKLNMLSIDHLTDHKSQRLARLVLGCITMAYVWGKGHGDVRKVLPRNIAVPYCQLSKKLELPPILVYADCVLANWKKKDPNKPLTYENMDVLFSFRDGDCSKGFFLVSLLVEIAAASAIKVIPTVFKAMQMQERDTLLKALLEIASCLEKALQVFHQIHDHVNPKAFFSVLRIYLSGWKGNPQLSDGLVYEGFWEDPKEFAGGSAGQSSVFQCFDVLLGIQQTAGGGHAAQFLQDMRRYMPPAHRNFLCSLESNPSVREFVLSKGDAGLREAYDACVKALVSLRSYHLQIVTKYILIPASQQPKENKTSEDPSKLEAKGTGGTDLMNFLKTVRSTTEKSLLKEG

| SMILES | IC50 |
| --- | --- |
| S=C(NCc1cnc2scc(C#CC3CC3)n12)Nc1cccc(Cl)c1 | 27.6 nM |
| N#Cc1ccc(NC(=O)NCc2cnc3scc(C#Cc4cccnc4)n23)cc1 | 3200 nM |
| CCCCNC(=S)NCc1cnc2scc(C#CC3CC3)n12 | 502 nM |
| O=C(NCc1cnc2scc(C#CC3CC3)n12)Nc1cccc(Cl)c1 | 42 nM |
| N#Cc1ccc(NC(=O)NCc2cnc3scc(C#Cc4ccsc4)n23)cc1 | 73.9 nM |
| N#Cc1ccc(NC(=O)NCc2cnc3scc(C#CC4CCCC4)n23)cc1 | 418 nM |
| N#Cc1ccc(NC(=O)NCc2cnc3scc(C#Cc4ccc(Cl)s4)n23)cc1 | 823 nM |
| N#Cc1ccc(NC(=S)NCc2cnc3scc(C#CC4CC4)n23)cc1 | 16.4 nM |
| OC(c1cnc2scc(C#CC3CC3)n12)C1CCCCC1 (configuration not stated) | 7150 nM |
| Cc1sc2nccn2c1-c1ccc(Br)cc1 | 3110 nM |
| N#Cc1ccc(NC(=O)NCc2cnc3scc(C#CC4CC4)n23)cc1 | 102 nM |
| O=C(CSc1nnc2scc(C3CCCCC3)n12)c1ccc(Br)cc1 | > 10000 nM |

Now from value to compound:

| IC50 | SMILES |
| --- | --- |
| 1090 nM | OC(c1ccccc1)c1cnc2scc(-c3ccc(Br)cc3)n12 (configuration not stated) |
| 339 nM | O=C(CSc1nnc2scc(-c3ccc(Cl)cc3)n12)c1ccc(Br)cc1 |
| 1280 nM | OC(c1cnc2scc(-c3ccc(Br)cc3)n12)C1CCCCC1 (configuration not stated) |
| 380 nM | Brc1ccc(-c2csc3nccn23)cc1 |
| 1070 nM | CCCS(=O)(=O)NCc1cnc2scc(-c3ccc(Br)cc3)n12 |
| 744 nM | O=S(=O)(Cc1cccc(Cl)c1)NCc1cnc2scc(-c3ccc(Br)cc3)n12 |
| > 10000 nM | O=C(CSc1nnc2scc(-c3ccc(Br)cc3)n12)c1ccc(Br)cc1 |
| 256 nM | CC(C)CSc1nnc2scc(-c3ccc(Cl)cc3)n12 |
| 855 nM | Cc1ccc(CS(=O)(=O)NCc2cnc3scc(-c4ccc(Br)cc4)n23)cc1 |

target: T1, Indoleamine 2,3-dioxygenase 1; test: Inhibition of human […] by HTS assay

| IC50 | SMILES |
| --- | --- |
| 1190 nM | O=C(CSc1nnc2scc(-c3ccccc3)n12)Nc1ccc(Cl)cc1 |
